Results as given in ChEMBL document CHEMBL3997765 (Medchemcomm, 2016).
The source made the active and inactive calls. No cut-off for these calls is given here.

Each compound was assayed against T1, Mitogen-activated protein kinase 14 (Homo sapiens, UniProt Q16539) (assay: Inhibition of full length recombinant human GST-tagged p38alpha expressed in Escherichia coli by Z'-Lyte assay).
T1 sequence (Q16539 whole entry): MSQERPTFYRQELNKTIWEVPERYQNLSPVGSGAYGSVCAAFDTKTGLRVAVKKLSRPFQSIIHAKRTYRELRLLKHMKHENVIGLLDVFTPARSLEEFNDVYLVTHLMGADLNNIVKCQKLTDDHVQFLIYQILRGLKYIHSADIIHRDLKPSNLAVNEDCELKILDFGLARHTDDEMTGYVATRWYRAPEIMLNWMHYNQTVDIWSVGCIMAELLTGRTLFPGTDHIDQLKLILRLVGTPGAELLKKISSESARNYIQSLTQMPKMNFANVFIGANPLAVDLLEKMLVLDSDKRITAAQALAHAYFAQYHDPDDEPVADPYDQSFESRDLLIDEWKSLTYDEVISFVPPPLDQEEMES

IC50	Structure (SMILES)
42.7 nM	Cc1ccc(C2=Nc3c(ncnc3S(=O)(=O)c3ccc(C)cc3)[S+]([O-])c3ccc(C)cc32)cc1 (stereo unspecified)
855 nM	[O-][S+](c1ccc(Cl)cc1)c1ncnc2c1N=C(c1ccccc1)c1cc(Cl)ccc1S2 (stereo unspecified)

The remaining lines, values behind:

Structure (SMILES)	IC50
c1ccc(Sc2ncnc3c2N=C(c2cccnc2)c2ccccc2S3)cc1	1250 nM
CCCC1=Nc2c(ncnc2[S+]([O-])c2ccccc2)Sc2ccccc21 (stereo unspecified)	969 nM

The compounds below were run against T1, Mitogen-activated protein kinase 14 (assay: Inhibition of full length recombinant human GST-tagged p38alpha expressed in Escherichia coli at 10 uM using Ser/Thr04 peptide as substrate in presence of inactive MAPKAPK2 after 1 hr by FRET assay relative to control).

inhibition	Structure (SMILES)
100%	Cc1ccc(C2=Nc3c(ncnc3S(=O)(=O)c3ccc(C)cc3)[S+]([O-])c3ccc(C)cc32)cc1 (stereo unspecified)
-4%	CCCCNc1ncnc2c1N=C(c1ccccc1)c1cc(C)ccc1S2
18%	Cc1ccc2c(c1)C(c1cccnc1)=Nc1c(NCc3ccccc3)ncnc1S2
4%	Cc1ccc(Sc2ncnc3c2N=C(c2cccnc2)c2cc(C)ccc2S3)cc1
100%	Cc1ccc(S(=O)(=O)c2ncnc3c2N=C(c2ccccc2)c2cc(C)ccc2[S+]3[O-])cc1 (stereo unspecified)
98%	[O-][S+](c1ccc(Cl)cc1)c1ncnc2c1N=C(c1ccccc1)c1cc(Cl)ccc1S2 (stereo unspecified)
95%	Cc1ccc([S+]([O-])c2ncnc3c2N=C(c2ccccc2)c2cc(C)ccc2S3)cc1 (stereo unspecified)
0%	Cc1ccc(Sc2ncnc3c2N=C(c2ccc(F)cc2)c2cc(C)ccc2S3)cc1
88%	Cc1ccc(C2=Nc3c(ncnc3[S+]([O-])c3ccc(C)cc3)Sc3ccc(C)cc32)cc1 (stereo unspecified)
1%	Cc1ccc(Sc2ncnc3c2N=C(Cc2ccccc2)c2cc(C)ccc2S3)cc1
100%	Cc1ccc([S+]([O-])c2ncnc3c2N=C(c2cccnc2)c2cc(C)ccc2S3)cc1 (stereo unspecified)
3%	Clc1ccc(Sc2ncnc3c2N=C(c2ccccc2)c2cc(Cl)ccc2S3)cc1
-2%	Cc1ccc(C2=Nc3c(NCc4ccccc4)ncnc3Sc3ccc(Cl)cc32)cc1
12%	Cc1ccc(Sc2ncnc3c2N=C(c2ccccc2)c2cc(C)ccc2S3)cc1

The next lines start with the compound.

Structure (SMILES)	inhibition
Cc1ccc(C2=Nc3c(ncnc3[S+]([O-])c3ccc(Cl)cc3)Sc3ccc(Cl)cc32)cc1 (stereo unspecified)	99%
CCCC1=Nc2c(Sc3ccccc3)ncnc2Sc2ccccc21	11%
CCCC1=Nc2c(NCc3ccccc3)ncnc2Sc2ccccc21	5%
COc1ccc(Sc2ncnc3c2N=C(Cc2ccccc2)c2cc(OC)ccc2S3)cc1	10%
Cc1ccc(C2=Nc3c(Sc4ccc(Cl)cc4)ncnc3Sc3ccc(Cl)cc32)cc1	4%
c1ccc(Sc2ncnc3c2N=C(c2cccnc2)c2ccccc2S3)cc1	98%
Cc1ccc2c(c1)C(Cc1ccccc1)=Nc1c(NC3CCCCC3)ncnc1S2	29%
c1ccc(C2=Nc3c(ncnc3N3CCCC3)Sc3ccccc32)cc1	-4%
Cc1ccc(C2=Nc3c(NC4CCCCC4)ncnc3Sc3ccc(Cl)cc32)cc1	11%
Cc1ccc2c(c1)C(c1ccc(F)cc1)=Nc1c(N)ncnc1S2	4%
c1ccc(CC2=Nc3c(Sc4ccccc4)ncnc3Sc3ccccc32)cc1	9%
CCCC1=Nc2c(Sc3ccc(C)cc3)ncnc2Sc2ccc(C)cc21	16%
Cc1ccc2c(c1)C(Cc1ccccc1)=Nc1c(NCc3ccccc3)ncnc1S2	19%
Clc1ccc(Sc2ncnc3c2N=C(Cc2ccccc2)c2cc(Cl)ccc2S3)cc1	0%
COc1ccc(Sc2ncnc3c2N=C(c2ccc(C)cc2)c2cc(OC)ccc2S3)cc1	30%
Fc1ccc(C2=Nc3c(Sc4ccccc4)ncnc3Sc3ccccc32)cc1	7%
CCCC1=Nc2c(ncnc2[S+]([O-])c2ccccc2)Sc2ccccc21 (stereo unspecified)	73%
CCCCNc1ncnc2c1N=C(c1ccccc1)c1cc(Cl)ccc1S2	-6%
Cc1ccc2c(c1)C(c1ccc(F)cc1)=Nc1c(NCCO)ncnc1S2	-3%
c1ccc(Sc2ncnc3c2N=C(c2ccccc2)c2ccccc2S3)cc1	18%
O=[N+]([O-])c1ccccc1C1=Nc2c(Sc3ccccc3)ncnc2Sc2ccccc21	63%

Each compound was assayed against T1, Mitogen-activated protein kinase 14 (assay: Inhibition of p38alpha phosphorylation in human U266 cells at 10 uM after 3 hrs by western blot analysis).
Format: cell-based

inhibition	Structure (SMILES)
Active	Cc1ccc(C2=Nc3c(ncnc3S(=O)(=O)c3ccc(C)cc3)[S+]([O-])c3ccc(C)cc32)cc1 (stereo unspecified)

Each compound was assayed against T1, Mitogen-activated protein kinase 14 (assay: Inhibition of p38alpha phosphorylation in human MM1S cells after 3 hrs by western blot analysis).
Format: cell-based

inhibition	Structure (SMILES)
Dose-dependent effect	Cc1ccc(C2=Nc3c(ncnc3S(=O)(=O)c3ccc(C)cc3)[S+]([O-])c3ccc(C)cc32)cc1 (stereo unspecified)
